Data from article PMC5159239 (Cell host & microbe, 2016).

B1: RIG-I-QQ (natural protein)
chain: MTTEQRRSLQAFQDYIRKTLDPTYILSYMAPWFREEEVQYIQAEKNNKGPMEAATLFLKFLLELQEEGWFRGFLDALDHAGYSGLYEAIESWDFKKIEKLEEYRLLLKRLQPEFKTRIIPTDIISDLSECLINQECEEILQICSTKGMMAGAEKLVECLLRSDKENWPKTLKLALEKERNKFSELWIVEKGIKDVETEDLEDKMETSDIQIFYQEDPECQNLSENSCPPSEVSDTNLYSPFKPRNYQLELALPAMKGKNTIICAPTGCGKTFVSLLICEHHLKKFPQGQKGKVVFFANQIPVYEQQKSVFSKYFERHGYRVTGISGATAENVPVEQIVENNDIIILTPQILVNNLKKGTIPSLSIFTLMIFDECHNTSKQHPYNMIMFNYLDQKLGGSSGPLPQVIGLTASVGVGDAKNTDEALDYICKLCASLDASVIATVKHNLEELEQVVYKPQKFFRKVESRISDKFKYIIAQLMRDTESLAKRICKDLEQLSQIQNREFGTQKYEQWIVTVQKACMVFQMPDKDEESRICKALFLYTSHLRKYQDALIISEHARMKDALDYLKDFFSNVRAAGFDEIEQDLTQRFEEKLQELESVSRDPSNENPKLEDLCFILQEEYHLNPETITILFVKTRALVDALKNWIEGNPKLSFLKPGILTGRGKTNQNTGMTLPAQKCILDAFKASGDHNILIATSVADEGIDIAQCNLVILYEYVGNVIKMIQTRGRGRARGSKCFLLTSNAGVIEKEQINMYKEKMMNDSILRLQTWDEAVFREKILHIQTHEKFIRDSQEKPKPVPDKENKKLLCRKCKALACYTADVRVIEECHYTVLGDAFKECFVSRPHPKPKQFSSFEKRAKIFCARQNCSHDWGIHVKYKTFEIPVIKIESFVVEDIATGVQTLYSKWKDFHFEKIPFDPAEMSK

Assays:
UL37C (571-1123) = UL37C (571-1123) (Human alphaherpesvirus 1 strain 17, UniProt P10221); experiment: tandem mass spectrometry of cysteine labelling; type: binding; details: covalent at C819; 45 min; also tested at 1 µM
SEC = target: the molecule itself; experiment: SEC

UL37C (571-1123), sequence (P10221 571-1123): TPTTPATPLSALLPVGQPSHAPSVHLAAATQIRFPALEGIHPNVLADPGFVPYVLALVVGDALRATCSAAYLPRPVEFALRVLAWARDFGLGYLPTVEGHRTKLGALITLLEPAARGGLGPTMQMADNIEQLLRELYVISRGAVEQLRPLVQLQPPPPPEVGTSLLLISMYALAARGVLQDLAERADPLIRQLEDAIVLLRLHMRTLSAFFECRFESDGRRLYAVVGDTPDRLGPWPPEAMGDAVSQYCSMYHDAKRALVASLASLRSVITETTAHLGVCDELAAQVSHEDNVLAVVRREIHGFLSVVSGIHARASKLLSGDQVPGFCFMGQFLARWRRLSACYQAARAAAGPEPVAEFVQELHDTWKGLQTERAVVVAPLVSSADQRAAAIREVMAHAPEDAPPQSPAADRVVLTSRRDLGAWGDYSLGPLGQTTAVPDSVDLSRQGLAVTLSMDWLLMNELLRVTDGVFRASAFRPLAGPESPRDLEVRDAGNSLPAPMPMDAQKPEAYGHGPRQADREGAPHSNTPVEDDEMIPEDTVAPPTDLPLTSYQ

Molecule	% C819 labelled at 10 μM (UL37C (571-1123))	binding result (SEC)
O=C(CCl)NCO [2-Chloro-N-(hydroxymethyl)acetamide]	42.5%	–
B1	–	binds
